Values joined by “and” are separate entries in the source; they are usually repeats but may differ in a detail not shown here. Identical values can stand only once.
Experiments:
HIV-1(IIIB) = assay: Inhibition of HIV-1 induced syncytium formation in CEM cells, HIV-1(IIIB) (WT); type: cell-based; conditions: day 4 post infection
Source text: Cells and Viruses CEM cells were obtained from the […] (Rockville, Md.). HIV-l(IIIB) was originally obtained from the culture supernatant of persistently HIV-1-infected H9 cells and was provided by R. C. Gallo and M. Popovic (National Cancer Institute, National Institutes of Health, Bethesda, Md.).
(§1) CEM cells were suspended at ≈300,000 cells per ml of culture medium and infected with approximately 100 CCID50 (CCID50 being the 50% cell culture infective dose) of HIV-1(IIIB) (designated as "WT" in Table 3) or one of the HIV-1 RT mutant strains described above. Then 100 μl of the infected cell suspensions was added to 200 μl microtiter plate wells containing 100 μl of appropriate serial (5-fold) dilutions of the test compounds. The inhibitiory effect of the test compounds on HIV-1 induced syncytium formation in CEM cells was examined microscopically on day 4 post infection. The 50% effective concentration (EC50) was defined as the test compound concentration that inhibits syncytium formation in the HIV-1-infected cell cultures by 50%.

HIV-1/181-Cys = assay: Inhibition of HIV-1 induced syncytium formation in CEM cells, RT mutant 181-Cys; type: cell-based; conditions: Human immunodeficiency virus 1, CCRF-CEM, 96 h
Source text: (§2) The selection and characterization of the HIV-1 RT mutant strains were done as follows: HIV-1/100-Ile ("100-Ile") was selected for resistance against TIBO R82150 as described in Balzarini et al, Virology 192: 246-253 (1993); HIV-1/103-Asn ("103-Asn") was selected for resistance against TIBO R82913 as described in Balzarini et al, Virology 192: 246-253 (1993); HIV-1/106-Ala ("106-Ala") was selected for resistance against nevirapine as described in Balzarini et al, J. Virol. 67: 5353-5359 (1993); HIV-1/Lys-138 ("ys-138") was selected for resistance against TSAO-m^3 T as described in Balzarini et al, Virology 192: 246-253 (1993) and Balzarini et al, Proc. Nat. Acad. Sci. USA 90: 6952-6956 (1993); HIV-1/181-Cys ("181-Cys") was selected for resistance against pyridinone L-697,661 as described in Balzarini et al, Virology 192: 246-253 (1993); and HIV-1/188-His ("188-His") was selected for resistance against HEPT as described in Balzarini et al, Mol. Pharmocol. 44: 694-701 (1993). 188-His was then further converted to HIV-1/188-Leu("188-Leu") upon further passage in cell culture in the absence of the HEPT. HIV-1/101-Glu ("101-Glu") and HIV-1/190-Glu ("190-Glu") were selected for resistance against the thiocarboxanilide derivative designated as UC38 as described in Balzarini et al, Antiviral Research 27: 219-236 (1995). HIV-1/184-Ile ("184-Ile") was selected for resistance against the combination of 3TC and TSAO-m^3 T as described in Balzarini et al, Molecular Pharm. 49: 882-890 (1996). HIV-1/184-Val ("184-Val") was selected for resistance against 3TC as described in Balzarini et al, Molecular Pharm. 49: 882-890 (1996).
as §1

HIV-1/106-Ala = assay: Inhibition of HIV-1 induced syncytium formation in CEM cells, RT mutant 106-Ala; type: cell-based; conditions: Human immunodeficiency virus 1, CCRF-CEM, 96 h
Source text: as §2, §1

HIV-1/188-Leu = assay: Inhibition of HIV-1 induced syncytium formation in CEM cells, RT mutant 188-Leu; type: cell-based; conditions: Human immunodeficiency virus 1, CCRF-CEM, 96 h
Source text: as §2, §1

HIV-1/184-Val = assay: Inhibition of HIV-1 induced syncytium formation in CEM cells, RT mutant 184-Val; type: cell-based; conditions: Human immunodeficiency virus 1, CCRF-CEM, 96 h
Source text: as §2, §1

HIV-1/Lys-138 = assay: Inhibition of HIV-1 induced syncytium formation in CEM cells, RT mutant 138-Lys; type: cell-based; conditions: Human immunodeficiency virus 1, CCRF-CEM, 96 h
Source text: as §2, §1

HIV-1/100-Ile = assay: Inhibition of HIV-1 induced syncytium formation in CEM cells, RT mutant 100-Ile; type: cell-based; conditions: Human immunodeficiency virus 1, CCRF-CEM, 96 h
Source text: as §2, §1

HIV-1/103-Asn = assay: Inhibition of HIV-1 induced syncytium formation in CEM cells, RT mutant 103-Asn; type: cell-based; conditions: Human immunodeficiency virus 1, CCRF-CEM, 96 h
Source text: as §2, §1

HIV-1/188-His = assay: Inhibition of HIV-1 induced syncytium formation in CEM cells, RT mutant 188-His; type: cell-based; conditions: Human immunodeficiency virus 1, CCRF-CEM, 96 h
Source text: as §2, §1

HIV-1/184-Ile = assay: Inhibition of HIV-1 induced syncytium formation in CEM cells, RT mutant 184-Ile; type: cell-based; conditions: Human immunodeficiency virus 1, CCRF-CEM, 96 h
Source text: as §2, §1

HIV-1/101-Glu = assay: Inhibition of HIV-1 induced syncytium formation in CEM cells, RT mutant 101-Glu; type: cell-based; conditions: Human immunodeficiency virus 1, CCRF-CEM, 96 h
Source text: as §2, §1

HIV-1/190-Glu = assay: Inhibition of HIV-1 induced syncytium formation in CEM cells, RT mutant 190-Glu; type: cell-based; conditions: Human immunodeficiency virus 1, CCRF-CEM, 96 h
Source text: as §2, §1

[1] = system: HIV-1 strains containing the 100 Leu→Ile mutation in their RT; conditions: cited from earlier work
[2] = system: 181 Tyr→Cys mutation in the RT of HIV-1 strains; conditions: cited from earlier work
[3] = Table 2, HIV-1(IIIB), repeat values
[4] = Human immunodeficiency virus 1, IIIB, CCRF-CEM, 96 h, Table 2, HIV-1(IIIB), repeat values
[5] = Human immunodeficiency virus 1, IIIB, CCRF-CEM, 96 h, Table 3, WT (HIV-1(IIIB))

SMILES	EC50 (HIV-1(IIIB); [3])	EC50 (HIV-1/181-Cys)	EC50 (HIV-1/106-Ala)	EC50 (HIV-1/188-Leu)	EC50 (HIV-1/184-Val)	EC50 (HIV-1/Lys-138)	EC50 (HIV-1/100-Ile)	EC50 (HIV-1(IIIB); [4])	EC50 (HIV-1(IIIB); [5])	EC50 (HIV-1/103-Asn)	EC50 (HIV-1/188-His)	EC50 (HIV-1/184-Ile)	EC50 (HIV-1/101-Glu)	EC50 (HIV-1/190-Glu)	resistance of the mutant strain to the compound [1]	resistance of the mutant strain to the compound [2]
CSSC(=Nc1ccc(Cl)c(OCCC(C)C)c1)c1ccsc1C [Compound 1, N-[4-chloro-3-(3-methylbutoxy)-phenyl]-2-methyl-3-thiophenecarbodithioperoxyimidic acid methyl ester]	104 nM and 186 nM	–	–	–	–	–	–	–	–	–	–	–	–	–	–	–
CSSC(=Nc1ccc(Cl)c(C=NOC(C)(C)C)c1)c1ccoc1C [Compound 3]	121 nM	0.1 µg/mL	0.18 µg/mL	1.35 µg/mL	0.12 µg/mL	0.1 µg/mL	0.47 µg/mL	128 nM	0.018 µg/mL	1.33 µg/mL	0.8 µg/mL	0.03 µg/mL	0.14 µg/mL	> 2 µg/mL	–	–
CSSC(=Nc1ccc(Cl)c(OCC=C(C)C)c1)c1ccoc1C [Compound 4]	–	0.08 µg/mL	0.018 µg/mL	0.58 µg/mL	0.0015 µg/mL	0.008 µg/mL	0.053 µg/mL	–	0.0018 µg/mL	0.15 µg/mL	0.85 µg/mL	0.0032 µg/mL	0.027 µg/mL	> 2 µg/mL	–	–
CSSC(=Nc1ccc(Cl)c(C=NOC(C)C)c1)c1ccoc1C [Compound 5, N-[4-chloro-3-[[(1-methylethoxy)imino]-methyl]phenyl]-2-methyl-3-furancarbodithioperoxyimidic acid methyl ester]	43.1 nM	0.18 µg/mL	0.1 µg/mL	0.95 µg/mL	0.0075 µg/mL	0.1 µg/mL	0.25 µg/mL	73.2 nM	0.0075 µg/mL	0.85 µg/mL	0.7 µg/mL	0.013 µg/mL	0.13 µg/mL	> 2 µg/mL	–	–
CSSC(=Nc1ccc(Cl)c(OCCC(C)C)c1)c1ccoc1C [Compound 6]	80.4 nM	0.29 µg/mL	0.13 µg/mL	> 2 µg/mL	0.008 µg/mL	0.15 µg/mL	0.25 µg/mL	83.7 nM	0.012 µg/mL	0.65 µg/mL	≥ 2 µg/mL	0.02 µg/mL	0.13 µg/mL	> 2 µg/mL	–	–
CSSC(=Nc1ccc(Cl)c(COc2ccccc2Cl)c1)c1ccoc1C [Compound 7]	53.3 nM	0.47 µg/mL	0.55 µg/mL	0.7 µg/mL	0.009 µg/mL	0.13 µg/mL	0.93 µg/mL	48.6 nM	0.0075 µg/mL	≥ 2 µg/mL	0.65 µg/mL	0.02 µg/mL	0.34 µg/mL	> 2 µg/mL	–	–
Cc1occc1C(=Nc1ccc(Cl)c(C=NOC(C)(C)C)c1)SSc1ccccc1 [Compound 8]	83.2 nM	0.23 µg/mL	0.7 µg/mL	> 2 µg/mL	0.018 µg/mL	0.18 µg/mL	0.65 µg/mL	156 nM	0.03 µg/mL	≥ 2 µg/mL	≥ 2 µg/mL	0.03 µg/mL	0.2 µg/mL	> 2 µg/mL	–	–
CSSC(=Nc1ccc(Cl)c(OCC=C(C)C)c1)c1cc(C)oc1C [Compound 9, N-[4-chloro-3-[(3-methyl-2-butenyl)oxy]phenyl]-2,5-dimethyl-3-furancarbodithioperoxyimidic acid methyl ester]	66.9 nM	0.7 µg/mL	0.2 µg/mL	≥ 2 µg/mL	0.009 µg/mL	0.09 µg/mL	≥ 2 µg/mL	65 nM	0.0097 µg/mL	≥ 2 µg/mL	≥ 2 µg/mL	0.05 µg/mL	0.28 µg/mL	> 2 µg/mL	–	–
CC(C)=CCOc1cc(N=C(SSc2ccccc2)c2ccoc2C)ccc1Cl [Compound 10]	–	≥ 2 µg/mL	0.5 µg/mL	> 2 µg/mL	0.053 µg/mL	0.23 µg/mL	1.5 µg/mL	–	0.05 µg/mL	≥ 2 µg/mL	≥ 2 µg/mL	0.09 µg/mL	0.2 µg/mL	> 2 µg/mL	–	–
CC(C)=CCOc1cc(N=C(SN2CCOCC2)c2ccoc2C)ccc1Cl [Compound 11]	12.4 nM	–	–	–	–	–	–	16.3 nM	–	–	–	–	–	–	–	–
CC(C)=CCN1Cc2cccc3[nH]c(=S)n(c23)C[C@@H]1C [Compound R82150]	–	–	–	–	–	–	–	–	–	–	–	–	–	–	resistant	–
CC(C)=CCN1Cc2cc(Cl)cc3[nH]c(=S)n(c23)C[C@@H]1C [TIBO R82913]	–	–	–	–	–	–	–	–	–	–	–	–	–	–	resistant	–
Cc1ccnc2c1NC(=O)c1cccnc1N2C1CC1 [nevirapine]	–	–	–	–	–	–	–	–	–	–	–	–	–	–	–	resistant
